According to article PMC6017844, “4-Thiazolidinone Derivatives as MMP Inhibitors in Tissue Damage: Synthesis, Biological Evaluation and Docking Studies” (Molecules : A Journal of Synthetic Chemistry and Natural …, 2018):
Read-outs that look alike come from different tables or passages of the source.

Columns and labels:
human recombinant MMP-9 = target: T1, human recombinant MMP-9 (Homo sapiens, UniProt P14780); experiment: MMP-9 fluorimetric assay; assay type: biochemical
T1 construct: using 10 nM of proteolytic enzyme (catalytic domains of MMP-9 (Biomol, Inc.)); purchased Biomol, Inc
Description: The synthesized compounds 13–19, 22 and 23 were tested for their in vitro ability to inhibit human recombinant MMP-9. Table 2 reports the results of this inhibition assay, expressed as IC50 (µM). […] We used as positive control a potent MMPs inhibitor, NNGH (N-isobutyl-N-(4-methoxy-phenylsulfonyl)glycylhydroxamic acid).
The compounds were evaluated for their ability to inhibit the hydrolysis of fluorescence-quenched peptide substrate Mca-Pro-Leu-Gly-Leu-Dpa-Ala-Arg-NH2 (Biomol, Inc., Enzo Life Sciences, Inc., Farmingdale, NY, USA). The MMP-9 assays were performed in 50 mM HEPES buffer containing 5 mM CaCl2, 0.1 mM ZnCl2, 0.05% Brij-35, at pH 7, using 10 nM of proteolytic enzyme (catalytic domains of MMP-9 (Biomol, Inc.) and 350 nM of peptide substrate. The enzyme was incubated at 25 °C with increasing concentration (0.0004, 0.004, 0.04, 0.4, 4, 40, 400 µM) of compounds, and the fluorescence (excitation max 328 nm; emission max 393 nm) was measured for 3 min after the addition of the substrate using a Victor Wallac 1420 Multilabel Counters fluorimeter (Perkin Elmer, Waltham, MA, USA). The fluorescence values of the samples were plotted against the time with a linear regression fit, using the Origin software, version 7 (Origin Lab Corporation, Northampton, MA, USA). The slope of the line value for each inhibitor concentrations was obtained where an increase of the slope corresponds to a decrease of inhibitory activity. Subsequently, the IC50 values were obtained from a non-linear regression procedure (log inhibitor vs. response) with a variables slope of the regression line (Y) and the molar inhibitor concentration (X), using the software Origin®7 (Origin Lab Corporation). The IC50 value was obtained from the equation Y = P1/(1 + X/P2). NNGH (N-Isobutyl-N-(4-methoxyphenylsulfonyl)glycylhydroxamic acid) a potent MMPs inhibitor was used as a positive control.

NF-κB = NF-κB levels by Western blot analysis; assay type: cell-based, human; conditions: NCTC 2544 stimulated with IFN-γ and histamine, 10 µM, 48 h, in words
From the text: The treatment of keratinocyte cell line NCTC 2544 with 200 U/mL of IFN-γ and 10^−4 M of H increased NF-κB levels compared to untreated cells. IFN-γ is an essential cytokine in amplifying inflammatory reactions, as it stimulates the synthesis of chemokines that attract inflammatory cells and induces expression of molecules important for the retention and activation of T cells. We employed both IFN-γ and histamine because they use distinct signal transduction pathways, and this can lead to a stronger activation of inflammatory genes. […] Stimulated keratinocytes were treated with compounds 22 and 23 and the levels of NF-κB were measured after 48 h. […]
The normal human keratinocyte cell line NCTC 2544 was provided by Interlab Cell Line Collection Genoa (Genova, Italy) and cultured in Minimum Essential Medium (MEM) (Sigma-Aldrich, Milan, Italy) containing 10% fetal calf serum, 100 U/mL penicillin and 100 μg/mL streptomycin at 37 °C in a humidified, 95% air/5% CO2 atmosphere. […] A day before the experiment, cells were trypsinized, counted, and plated either in 96 wells or in 6 well plates. […]
The expression of nuclear factor kappa-light-chain-enhancer of activated B cells (NF-κB) was evaluated by Western blot analysis. […] Bands were measured densitometrically and their relative density was calculated based on the density of the […] in each sample. […]

[1] = Oxygen Radical Absorbance Capacity (ORAC) assay; conditions: for ORAC UNITs: fluorescein 10 nM, AAPH 100 mM, 37 °C, pH 7.0, mean ± SD (n = 3), Trolox = 1 ORAC Units
From the text: Free radicals and ROS are highly reactive molecules that are generated by normal cellular processes. They react with cellular components, damaging DNA, carbohydrates, proteins, and lipids causing cellular and tissue injury. Although organisms have developed complex antioxidant systems to protect themselves from oxidative substances, an excess of ROS production can lead to inflammation and several disease state. ORAC test measures both lipophilic and hydrophilic antioxidant capacity and determines the ability of antioxidants to protect proteins from damage caused by free radicals. ORAC assay has been widely accepted as a standard in vitro to measure the antioxidant activity of synthetic compounds, measuring their capacity to transfer hydrogen atom. The assay measures the loss of fluorescence over time due to peroxyl-radical formation by the breakdown of 2,2′-azobis-2-methyl-propanimidamide dihydrochloride (AAPH). 6-Hydroxy-2,5,7,8-tetramethylchroman-2-carboxylic acid (Trolox), a water soluble vitamin E analog, is a positive control that inhibits the fluorescein decay in a dose dependent manner. The ORAC assay is a kinetic assay measuring fluorescein decay and antioxidant protection over time.
The ORAC assay was performed as previously reported by Cao et al.. The measurements were carried out on a Wallac 1420 Victor^3 96-well plate reader (EG & Wallac, Turku, Finland) with fluorescence filter ([…]). Fluorescein (10 nM) was the fluorescence probe and target molecule for free radical attack from AAPH (100 mM) as peroxyl radical generator. The reaction was conducted at 37 °C at pH 7.0 with Trolox (12.5 μM) as control standard and phosphate buffer as blank. Compounds 13–19 and 22–23 were appropriately diluted with DMSO/buffer (1:10) prior to analysis. The fluorescein fluorescence was recorded every 2 min after addition of AAPH. All measurements were expressed relative to the initial reading. One blank, one standard, and a maximum of 10 samples were analyzed at the same time. Each measure was repeated at least three times. The ORAC value refers to the net protection area under the quenching curve of fluorescein in the presence of an antioxidant. The final results (ORAC value) were calculated and expressed using Trolox equivalents (TE) per gram of extract (TE/g):ORAC value (μM) = K(S sample − S blank)/(S Trolox − S blank)(1) where K is a sample dilution factor, S is the area under the fluorescence decay curve of the sample, Trolox or blank. This area was calculated with Origin®7 (OriginLab Corporation, Northampton, MA, USA).

T1 sequence (P14780 107-444 limits assumed): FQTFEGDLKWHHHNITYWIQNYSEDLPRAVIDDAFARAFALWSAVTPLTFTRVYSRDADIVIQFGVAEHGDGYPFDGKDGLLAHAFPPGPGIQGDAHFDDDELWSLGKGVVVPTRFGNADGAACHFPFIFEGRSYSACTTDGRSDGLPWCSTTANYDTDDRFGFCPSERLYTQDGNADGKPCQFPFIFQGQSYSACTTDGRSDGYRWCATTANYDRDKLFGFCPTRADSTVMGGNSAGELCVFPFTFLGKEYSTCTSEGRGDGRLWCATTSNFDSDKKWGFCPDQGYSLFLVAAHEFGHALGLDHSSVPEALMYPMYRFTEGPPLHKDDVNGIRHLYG

Structure (SMILES) | melting point [°C] | IC50 (human recombinant MMP-9; catalytic domain of MMP-9 10 nM, substrate 350 nM, 25 °C, pH 7, mean ± SD (n = 3), n.a. = not active, read-out: IC50 Value) [nM] | effect on NF-κB release (NF-κB) | antioxidant activity in words ([1]; delay of fluorescence reduction of fluorescein-AAPH solution) | ORAC UNITs [1] | IC50 (human recombinant MMP-9; read-out: IC50 (MMP-9)) [nM] | ORAC value [1] [TE/µmol]
CC(C(=O)NN1C(=O)CSC1c1ccc([N+](=O)[O-])cc1)c1nsc2ccccc12 (centres unmarked) (hydrate or solvate) [Compound 19, 2-(1,2-Benzothiazol-3-yl)-N-[2-(4-nitrophenyl)-4-oxo-1,3-thiazolidin-3-yl]propanamide] | 208 to 209 | – | – | – | – | – | –
CC(C(=O)NN1C(=O)CSC1c1ccc(O)cc1)c1nsc2ccccc12 (centres unmarked) [Compound 22, 2-(1,2-Benzothiazol-3-yl)-N-[2-(4-hydroxyphenyl)-4-oxo-1,3-thiazolidin-3-yl]propanamide] | 257 to 259 | 300 ± 50 | reduced NF-κB release | excellent antioxidant effectiveness | 1.24 ± 0.09 ORAC unit (μmol of Trolox equi | – | –
CC(C(=O)NN1C(=O)CSC1c1ccc(C(=O)O)cc1)c1nsc2ccccc12 (centres unmarked) [Compound 23, 4-(3-{[2-(1,2-Benzothiazol-3-yl)propanoyl]amino}-4-oxo-1,3-thiazolidin-2-yl)benzoic acid] | 137 to 140 | – | reduced NF-κB release | – | 0.53 ± 0.17 ORAC unit (μmol of Trolox equi | 40 | 0.53
